Assay results as given in patent US12012410B2, “Substituted pyrazolo[1,5-a]pyrazines for spinal muscular atrophy” (REBORNA BIOSCIENCES, INC., priority 2018, dated 2024).

tested on: FL-SMN mRNA (SMN transcript containing exons 7 and 8); assay: Live-cell assay to measure changes in FL-SMN mRNA levels (qPCR) after exposure to the compounds; type: cell-based, human; details: fibroblasts derived from patients SMA (GM03813); 24 hours incubation
Outline: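 SMA patient fibroblasts (GM03813) in DMEM/10% FBS were treated with compound (0.1% DMSO final) for 24 h. FL-SMN and Δ7 mRNA were measured by RT-qPCR against oligo DNA standard curves and normalised to GAPDH. Values are % of the DMSO control, binned by asterisk from ≥100% to ≥180%.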

| Structure (SMILES) | Percentage of increase (FL-SMN mRNA standardized against GAPDH, DMSO control set as 100%) |
| --- | --- |
| Cc1nc2ccc(-c3ccc4nc(C5CCN(C6CC6)CC5)[nH]c(=O)c4c3)cc2o1 [Example 83, 2-(1-cyclopropylpiperidin-4-yl)-6-(2-methyl-1,3-benzoxazol-6-yl)quinazolin-4(3H)-one] | ** (equal to or higher than 120% but lower than 150%) |
| Cc1cn2nc(-c3nc4ccc(N5CCN(C6CC6)CC5)cc4c(=O)[nH]3)cc2cn1 [Example 116, 6-(4-cyclopropylpiperazin-1-yl)-2-(6-methylpyrazolo[1,5-a]pyrazin-2-yl)quinazolin-4(3H)-one] | **** (equal to or higher than 180%) |
| CN1CCN(c2ccc3nc(C4=NOC5(CCN(C)CC5)C4)[nH]c(=O)c3c2)CC1 [Example 42, 2-(8-methyl-1-oxa-2,8-diazaspiro[4.5]dec-2-en-3-yl)-6-(4-methylpiperazin-1-yl)quinazolin-4(3H)-one] | * (equal to or higher than 100% but lower than 120%) |
| CCN1CCC(F)(c2nc3cnc(-c4cc(F)c5nc(C)cn5c4)cc3c(=O)[nH]2)CC1 [Example 109, 2-(1-ethyl-4-fluoropiperidin-4-yl)-6-(8-fluoro-2-methylimidazo[1,2-a]pyridin-6-yl)pyrido[3,4-d]pyrimidin-4(3H)-one] | *** (equal to or higher than 150% but lower than 180%) |
| Cc1cn2cc(-c3cc(F)c4nc(C5(F)CCN(C)CC5)[nH]c(=O)c4c3)cc(F)c2n1 [Example 97, 8-fluoro-6-(8-fluoro-2-methylimidazo[1,2-a]pyridin-6-yl)-2-(4-fluoro-1-methylpiperidin-4-yl)quinazolin-4(3H)-one] | **** (equal to or higher than 180%) |
| Cc1nc2c(F)cc(-c3cc(F)c4nc(C5CCN(C)CC5)[nH]c(=O)c4c3)cc2o1 [Example 24, 8-Fluoro-6-(4-fluoro-2-methyl-1,3-benzoxazole 6-yl)-2-(1-methylpiperidin-4-yl) quinazoline 4-(3H)-one] | **** (equal to or higher than 180%) |
| Cc1nc2ccc(-c3ccc4nc(C5CCN(C)CC5)[nH]c(=O)c4c3)cc2s1 [Example 14, 6-(2-Methyl-1,3-benzothiazol-6-yl)-2-(1-methylpiperidin-4-yl)quinazolin-4(3H)-one] | *** (equal to or higher than 150% but lower than 180%) |
| CN1CCC(c2ccc3nc(C4=NOC5(CCN(C)CC5)C4)[nH]c(=O)c3c2)CC1 [Example 43, 2-(8-methyl-1-oxa-2,8-diazaspiro[4.5]dec-2-en-3-yl)-6-(1-methylpiperidin-4-yl)quinazolin-4(3H)-one] | * (equal to or higher than 100% but lower than 120%) |
| Cc1nc2c(F)cc(-c3ccc4c(=O)n(C5CCN(C)CC5)cnc4c3)cc2o1 [Example 29, 7-(4-fluoro-2-methyl-1,3-benzoxazol-6-yl)-3-(1-methylpiperidin-4-yl)quinazolin-4(3H)-one] | **** (equal to or higher than 180%) |
| Cc1nc2ccc(-c3cc(F)c4nc(C5CCN(C6CC6)CC5)[nH]c(=O)c4c3)cc2o1 [Example 31, 2-(1-cyclopropylpiperidin-4-yl)-8-fluoro-6-(2-methyl-1,3-benzoxazol-6-yl)quinazolin-4(3H)-one] | **** (equal to or higher than 180%) |
| Cc1cn2nc(-c3nc4cc(F)c(N5CCN(C)CC5)cc4c(=O)[nH]3)cc2c(C)n1 [Example 7, 2-(4,6-Dimethylpyrazolo[1,5-α]pyrazin-2-yl)-7-fluoro-6-(4-methylpiperazin-1-yl)quinazolin-4(3H)-one] | *** (equal to or higher than 150% but lower than 180%) |
| Cc1cn2cc(-c3cc4c(=O)[nH]c(C5(F)CCN(C6CC6)CC5)nc4cn3)cc(F)c2n1 [Example 104, 2-(1-cyclopropyl-4-fluoropiperidin-4-yl)-6-(8-fluoro-2-methylimidazo[1,2-a]pyridin-6-yl)pyrido[3,4-d]pyrimidin-4(3H)-one] | *** (equal to or higher than 150% but lower than 180%) |
| Cc1nc2ccc(-c3nc4cc(C)c(C5CCN(C)CC5)cc4c(=O)[nH]3)cc2o1 [Example 41, 7-methyl-2-(2-methyl-1,3-benzoxazol-6-yl)-6-(1-methylpiperidin-4-yl)quinazolin-4(3H)-one] | * (equal to or higher than 100% but lower than 120%) |
| Cc1cn2nc(-c3nc4ccc(N5CCN(C)CC5=O)cc4c(=O)[nH]3)cc2c(C)n1 [Example 78, 2-(4,6-dimethylpyrazolo[1,5-a]pyrazin-2-yl)-6-(4-methyl-2-oxopiperazin-1-yl)quinazolin-4(3H)-one] | * (equal to or higher than 100% but lower than 120%) |
| Cc1cc2nc(-c3nc4ccc(N5CCN(C6CC6)CC5)cc4c(=O)[nH]3)cn2c(C)n1 [Example 117, 6-(4-cyclopropylpiperazin-1-yl)-2-(5,7-dimethylimidazo[1,2-c]pyrimidin-2-yl)quinazolin-4(3H)-one] | **** (equal to or higher than 180%) |
| Cc1nc2c(F)cc(-c3cc4c(=O)[nH]c(C5(F)CCN(C6CC6)CC5)nc4cn3)cc2o1 [Example 107, 2-(1-cyclopropyl-4-fluoropiperidin-4-yl)-6-(4-fluoro-2-methyl-1,3-benzoxazol-6-yl)pyrido[3,4-d]pyrimidin-4(3H)-one] | ** (equal to or higher than 120% but lower than 150%) |
| COc1cccc(-c2nc3ccc(C4CCN(C)CC4)cc3c(=O)[nH]2)n1 [Example 45, 2-(6-methoxypyridin-2-yl)-6-(1-methylpiperidin-4-yl)quinazolin-4(3H)-one] | ** (equal to or higher than 120% but lower than 150%) |
| Cc1cc2oc(-c3nc4ccc(N5CCN(C)CC5)cc4c(=O)[nH]3)cc2c(C)n1 [Example 11, 2-(4,6-Dimethylfuro[3,2-c]pyridin-2-yl)-6-(4-methylpiperazin-1-yl)quinazolin-4(3H)-one] | *** (equal to or higher than 150% but lower than 180%) |
| Cc1cn2cc(-c3ccc4nc(C5(F)CCN(C6CC6)CC5)[nH]c(=O)c4n3)cc(F)c2n1 [Example 102, 2-(1-cyclopropyl-4-fluoropiperidin-4-yl)-6-(8-fluoro-2-methylimidazo[1,2-a]pyridin-6-yl)pyrido[3,2-d]pyrimidin-4(3H)-one] | ** (equal to or higher than 120% but lower than 150%) |
| CCN1CCC(F)(c2nc3c(C)cc(-c4cc(F)c5nc(C)cn5c4)nc3c(=O)[nH]2)CC1 [Example 100, 2-(1-ethyl-4-fluoropiperidin-4-yl)-6-(8-fluoro-2-methylimidazo[1,2-a]pyridin-6-yl)-8-methylpyrido[3,2-d]pyrimidin-4(3H)-one] | **** (equal to or higher than 180%) |
| COCCN1CCC(F)(c2nc3ccc(-c4cc(F)c5nc(C)cn5c4)cc3c(=O)[nH]2)CC1 [Example 110, 2-[4-fluoro-1-(2-methoxyethyl)piperidin-4-yl]-6-(8-fluoro-2-methylimidazo[1,2-a]pyridin-6-yl)quinazolin-4(3H)-one] | ** (equal to or higher than 120% but lower than 150%) |
| CN1CCC(c2nc3ccc(-c4ccc5nccn5c4)cc3c(=O)[nH]2)CC1 [Example 65, 6-(imidazo[1,2-a]pyridin-6-yl)-2-(1-methylpiperidin-4-yl)quinazolin-4(3H)-one] | ** (equal to or higher than 120% but lower than 150%) |
| Cc1cn2cc(-c3nc4cc(F)c(N5CCN(C)CC5)cc4c(=O)[nH]3)cc(C)c2n1 [Example 57, 2-(2,8-dimethylimidazo[1,2-a]pyridin-6-yl)-7-fluoro-6-(4-methylpiperazin-1 - yl)quinazolin-4(3H)-one] | ** (equal to or higher than 120% but lower than 150%) |
| Cc1cn2cc(-c3nc4ccc(N5CCN(C)CC5)cc4c(=O)[nH]3)cc2c(C)n1 [Example 64, 2-(1,3-dimethylpyrrolo[1,2-a]pyrazin-7-yl)-6-(4-methylpiperazin-1-yl)quinazolin-4(3H)-one] | * (equal to or higher than 100% but lower than 120%) |
| Cc1cn2nc(-c3nc4ccc(N5CCN(C(C)C)CC5)cc4c(=O)[nH]3)cc2c(C)n1 [Example 119, 2-(4,6-dimethylpyrazolo[1,5-a]pyrazin-2-yl)-6-(4-isopropylpiperazin-1-yl)quinazolin-4(3H)-one bistrifluoroacetate] | **** (equal to or higher than 180%) |
| Cc1ccc(-c2nc3ccc(C4CCN(C)CC4)cc3c(=O)[nH]2)c(=O)n1C [Example 44, 2-(1,6-dimethyl-2-oxo-1,2-dihydropyridin-3-yl)-6-(1-methylpiperidin-4-yl)quinazolin-4(3H)-one] | ** (equal to or higher than 120% but lower than 150%) |
| COCCN1CCC(c2nc3cnc(-c4cc(F)c5nc(C)oc5c4)cc3c(=O)[nH]2)CC1 [Example 113, 6-(4-fluoro-2-methyl-1,3-benzoxazol-6-yl)-2-[1-(2-methoxyethyl)piperidin-4-yl]pyrido[3,4-d]pyrimidin-4(3H)-one] | **** (equal to or higher than 180%) |
